According to ChEMBL document CHEMBL1126574, “Non-peptide angiotensin II receptor antagonists. 2. Design, synthesis, and biological activity of N-substituted (phenylamino)phenylacetic acids and acyl sulfonamides” (J Med Chem, 1993):

Legend:
[1] = target: T1, Type-2 angiotensin II receptor (Rattus norvegicus, UniProt P35351); experiment: In vitro antagonist activity against angiotensin II type 2 (AT2) receptor in rat midbrain using [125I]- Sar, Ile AII.; type: functional
T1 sequence (P35351 whole entry): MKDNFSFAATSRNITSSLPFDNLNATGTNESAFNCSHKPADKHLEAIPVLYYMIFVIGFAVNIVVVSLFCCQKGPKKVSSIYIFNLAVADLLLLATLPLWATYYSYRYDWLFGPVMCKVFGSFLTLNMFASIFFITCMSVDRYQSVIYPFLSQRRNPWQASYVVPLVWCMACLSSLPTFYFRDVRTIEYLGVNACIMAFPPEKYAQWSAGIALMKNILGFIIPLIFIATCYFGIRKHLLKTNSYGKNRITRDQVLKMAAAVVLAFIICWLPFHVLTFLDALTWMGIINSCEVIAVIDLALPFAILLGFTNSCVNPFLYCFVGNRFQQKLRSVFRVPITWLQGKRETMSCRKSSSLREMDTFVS

[2] = target: T2, Type-1 angiotensin II receptor (Oryctolagus cuniculus, UniProt P34976); experiment: In vitro antagonist activity against angiotensin II receptor type 1 in rabbit aorta using [125I]-Sar, Ile AII.; type: functional, tissue-based
T2 sequence (P34976 whole entry): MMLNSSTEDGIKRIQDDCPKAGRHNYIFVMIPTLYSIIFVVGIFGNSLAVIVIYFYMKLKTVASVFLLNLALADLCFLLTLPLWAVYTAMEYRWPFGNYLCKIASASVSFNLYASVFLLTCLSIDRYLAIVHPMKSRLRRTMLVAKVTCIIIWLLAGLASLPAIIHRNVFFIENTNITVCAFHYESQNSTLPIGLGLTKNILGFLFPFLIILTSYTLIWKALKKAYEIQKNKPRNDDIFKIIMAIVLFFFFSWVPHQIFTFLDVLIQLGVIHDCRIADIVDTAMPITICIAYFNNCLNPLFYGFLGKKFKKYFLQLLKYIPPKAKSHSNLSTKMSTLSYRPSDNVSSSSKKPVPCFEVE

| IC50 [1] | IC50 [2] | SMILES |
| --- | --- | --- |
| 12000 nM | 1900 nM | CCc1nc2c(C)cc(C)nc2n1Cc1ccc(N(CC)C(C(=O)O)c2cc(C(F)(F)F)cc(C(F)(F)F)c2)cc1 (stereo not given) |
| 2200 nM | 31 nM | CCc1nc2c(C)cc(C)nc2n1Cc1ccc(N(CC2CC2)C(C(=O)O)c2ccccc2)cc1 (stereo not given) |
| 2100 nM | 66 nM | CCc1nc2c(C)cc(C)nc2n1Cc1ccc(N(CC)C(C(=O)O)c2cccc(C)c2)cc1 (stereo not given) |
| > 10000 nM | > 100 nM | CCc1nc2c(C)cc(C)nc2n1Cc1ccc(N(C)C(C(=O)O)c2cc(F)ccc2F)cc1 (stereo not given) |
| 490 nM | 5.3 nM | C=CCN(c1ccc(Cn2c(CC)nc3c(C)cc(C)nc32)cc1)C(C(=O)O)c1ccccc1 (stereo not given) |
| 3400 nM | 8.2 nM | CCc1nc2c(C)cc(C)nc2n1Cc1ccc(N(C)C(C(=O)O)c2ccccc2)cc1 (stereo not given) |
| 740 nM | 4 nM | CCc1nc2c(C)cc(C)nc2n1Cc1ccc(N(CC)C(C(=O)O)c2ccccc2)cc1 (stereo not given) |
| 11000 nM | 100 nM | CCc1nc2c(C)cc(C)nc2n1Cc1ccc(NC(C(=O)O)c2ccccc2)c(C)c1 (stereo not given) |
| 6000 nM | 860 nM | CCc1nc2c(C)cc(C)nc2n1Cc1ccc(NC(C(=O)O)c2cc(C(F)(F)F)cc(C(F)(F)F)c2)cc1 (stereo not given) |
| 1600 nM | 80 nM | CCc1nc2c(C)cc(C)nc2n1Cc1ccc(N(C(C)CC)C(C(=O)O)c2ccccc2)cc1 (stereo not given) |
| > 300 nM | 22 nM | CCc1nc2c(C)cc(C)nc2n1Cc1ccc(N(CC(C)C)C(C(=O)O)c2ccccc2)cc1 (stereo not given) |
| > 10000 nM | 380 nM | CCc1nc2c(C)cc(C)nc2n1Cc1ccc(N(CC)C(C(=O)O)c2ccccc2Cl)cc1 (stereo not given) |
| 11000 nM | 82 nM | C=CCN(c1ccc(Cn2c(CC)nc3c(C)cc(C)nc32)cc1C)C(C(=O)O)c1ccccc1C (stereo not given) |
| 4800 nM | 12 nM | CCCN(c1ccc(Cn2c(CC)nc3c(C)cc(C)nc32)cc1C)C(C(=O)O)c1ccccc1 (stereo not given) |
| > 10000 nM | 88 nM | CCc1nc2c(C)cc(C)nc2n1Cc1ccc(N(CC)C(C(=O)O)c2cc(F)ccc2F)cc1 (stereo not given) |
| 8600 nM | 10 nM | CCc1nc2c(C)cc(C)nc2n1Cc1ccc(N(CC)C(C(=O)O)c2ccccc2)c(C)c1 (stereo not given) |
| 21000 nM | 200 nM | CCc1nc2c(C)cc(C)nc2n1Cc1ccc(NC(C(=O)O)c2ccccc2)cc1 (stereo not given) |
| 420 nM | 0.8 nM | CCCN(c1ccc(Cn2c(CC)nc3c(C)cc(C)nc32)cc1)C(C(=O)NS(=O)(=O)c1ccccc1)c1ccccc1 (stereo not given) |
| 560 nM | 5.3 nM | CCCN(c1ccc(Cn2c(CC)nc3c(C)cc(C)nc32)cc1)C(C(=O)O)c1ccccc1 (stereo not given) |
| 4300 nM | 34 nM | C=CCN(c1ccc(Cn2c(CC)nc3c(C)cc(C)nc32)cc1C)C(C(=O)O)c1ccccc1 (stereo not given) |
| 660 nM | 94 nM | CCCCN(c1ccc(Cn2c(CC)nc3c(C)cc(C)nc32)cc1)C(C(=O)O)c1ccccc1 (stereo not given) |
| 2900 nM | 1 nM | C=CCN(c1ccc(Cn2c(CC)nc3c(C)cc(C)nc32)cc1)C(C(=O)NS(=O)(=O)c1ccccc1)c1ccccc1 (stereo not given) |
| 200 nM | 0.9 nM | CCc1nc2c(C)cc(C)nc2n1Cc1ccc(N(CC)C(C(=O)NS(=O)(=O)c2ccccc2)c2ccccc2)cc1 (stereo not given) |
| > 30000 nM | 15 nM | CCc1nc2c(C)cc(C)nc2n1Cc1ccc(N(C)C(c2ccccc2)c2nnn[nH]2)cc1 (stereo not given) |
| 8800 nM | 200 nM | C=CCN(c1ccc(Cn2c(CC)nc3c(C)cc(C)nc32)cc1)C(C(=O)O)c1cc(F)ccc1F (stereo not given) |
| 19000 nM | 28 nM | CCc1nc2c(C)cc(C)nc2n1Cc1ccc(NC(C(=O)O)c2ccccc2C)c(C)c1 (stereo not given) |
| 11000 nM | 70 nM | CCc1nc2c(C)cc(C)nc2n1Cc1ccc(N(C)C(C(=O)O)c2ccccc2)c(C)c1 (stereo not given) |
| > 10000 nM |  | CCc1nc2c(C)cc(C)nc2n1Cc1ccc(-c2ccccc2-c2nnn[nH]2)cc1 [L-158809] |
